# Reference: ChEMBL document CHEMBL5303573, “Mapping human microbiome drug metabolism by gut bacteria and their genes” (Nature, 2019)
# Test: The drug is tested on Bacteroides fragilis strain: ATCC43859 for biotransformation. The drug concentrations were measured before and after a 12-h incubation by liquid-chromatography-coupled mass spectrometry (LC–MS)
# Settings: 2 µM
row,Structure (SMILES),Bacterial Biotransformation
1,COc1ccc2c3c1O[C@H]1C[C@@H](O)C=C[C@@]31CCN(C)C2 [GALANTAMINE],Compound metabolized
2,COCCc1ccc(OCC(O)CNC(C)C)cc1.COCCc1ccc(OCC(O)CNC(C)C)cc1.O=C(O)C(O)C(O)C(=O)O (configuration not stated) [METOPROLOL TARTRATE],Compound metabolized
3,Cc1ccccc1N1C(=O)c2cc(S(N)(=O)=O)c(Cl)cc2NC1C (configuration not stated) [METOLAZONE],Compound NOT metabolized

# Test: The drug is tested on Enterobacter cancerogenus strain: ATCC35316 for biotransformation. The drug concentrations were measured before and after a 12-h incubation by liquid-chromatography-coupled mass spectrometry (LC–MS)
# Settings: 2 µM
row,Structure (SMILES),Bacterial Biotransformation
1,COc1ccc2c3c1O[C@H]1C[C@@H](O)C=C[C@@]31CCN(C)C2 [GALANTAMINE],Compound NOT metabolized
2,COCCc1ccc(OCC(O)CNC(C)C)cc1.COCCc1ccc(OCC(O)CNC(C)C)cc1.O=C(O)C(O)C(O)C(=O)O (configuration not stated) [METOPROLOL TARTRATE],Compound NOT metabolized
3,Cc1ccccc1N1C(=O)c2cc(S(N)(=O)=O)c(Cl)cc2NC1C (configuration not stated) [METOLAZONE],Compound NOT metabolized

# Test: The drug is tested on Coprococcus comes strain: ATCC27758 for biotransformation. The drug concentrations were measured before and after a 12-h incubation by liquid-chromatography-coupled mass spectrometry (LC–MS)
# Format: ADME
# Parameters: dose 2 uM, timepoint 0 vs 12 hours
# Settings: 2 µM
row,Structure (SMILES),Bacterial Biotransformation
1,COc1ccc2c3c1O[C@H]1C[C@@H](O)C=C[C@@]31CCN(C)C2 [GALANTAMINE],Compound NOT metabolized
2,COCCc1ccc(OCC(O)CNC(C)C)cc1.COCCc1ccc(OCC(O)CNC(C)C)cc1.O=C(O)C(O)C(O)C(=O)O (configuration not stated) [METOPROLOL TARTRATE],Compound NOT metabolized

# Test: The drug is tested on Bacteroides coprophilus strain: DSM18228 for biotransformation. The drug concentrations were measured before and after a 12-h incubation by liquid-chromatography-coupled mass spectrometry (LC–MS)
# Settings: 2 µM
row,Structure (SMILES),Bacterial Biotransformation
1,COc1ccc2c3c1O[C@H]1C[C@@H](O)C=C[C@@]31CCN(C)C2 [GALANTAMINE],Compound metabolized
2,COCCc1ccc(OCC(O)CNC(C)C)cc1.COCCc1ccc(OCC(O)CNC(C)C)cc1.O=C(O)C(O)C(O)C(=O)O (configuration not stated) [METOPROLOL TARTRATE],Compound NOT metabolized
3,Cc1ccccc1N1C(=O)c2cc(S(N)(=O)=O)c(Cl)cc2NC1C (configuration not stated) [METOLAZONE],Compound NOT metabolized

# Test: The drug is tested on Collinsella intestinalis strain: DSM13280 for biotransformation. The drug concentrations were measured before and after a 12-h incubation by liquid-chromatography-coupled mass spectrometry (LC–MS)
# Settings: 2 µM
row,Structure (SMILES),Bacterial Biotransformation
1,COc1ccc2c3c1O[C@H]1C[C@@H](O)C=C[C@@]31CCN(C)C2 [GALANTAMINE],Compound NOT metabolized
2,COCCc1ccc(OCC(O)CNC(C)C)cc1.COCCc1ccc(OCC(O)CNC(C)C)cc1.O=C(O)C(O)C(O)C(=O)O (configuration not stated) [METOPROLOL TARTRATE],Compound NOT metabolized
3,Cc1ccccc1N1C(=O)c2cc(S(N)(=O)=O)c(Cl)cc2NC1C (configuration not stated) [METOLAZONE],Compound NOT metabolized

# Test: The drug is tested on Eubacterium rectale strain: ATCC33656 for biotransformation. The drug concentrations were measured before and after a 12-h incubation by liquid-chromatography-coupled mass spectrometry (LC–MS)
# Settings: agathobacter rectalis, 2 µM
row,Structure (SMILES),Bacterial Biotransformation
1,COCCc1ccc(OCC(O)CNC(C)C)cc1.COCCc1ccc(OCC(O)CNC(C)C)cc1.O=C(O)C(O)C(O)C(=O)O (configuration not stated) [METOPROLOL TARTRATE],Compound NOT metabolized

# Test: The drug is tested on Blautia luti strain: DSM14534 for biotransformation. The drug concentrations were measured before and after a 12-h incubation by liquid-chromatography-coupled mass spectrometry (LC–MS)
# Format: ADME
# Parameters: dose 2 uM, timepoint 0 vs 12 hours
# Settings: 2 µM
row,Structure (SMILES),Bacterial Biotransformation
1,COc1ccc2c3c1O[C@H]1C[C@@H](O)C=C[C@@]31CCN(C)C2 [GALANTAMINE],Compound NOT metabolized
2,COCCc1ccc(OCC(O)CNC(C)C)cc1.COCCc1ccc(OCC(O)CNC(C)C)cc1.O=C(O)C(O)C(O)C(=O)O (configuration not stated) [METOPROLOL TARTRATE],Compound NOT metabolized
3,Cc1ccccc1N1C(=O)c2cc(S(N)(=O)=O)c(Cl)cc2NC1C (configuration not stated) [METOLAZONE],Compound NOT metabolized

# Test: The drug is tested on Bacteroides fragilis strain: HMW610 for biotransformation. The drug concentrations were measured before and after a 12-h incubation by liquid-chromatography-coupled mass spectrometry (LC–MS)
# Settings: 2 µM
row,Structure (SMILES),Bacterial Biotransformation
1,COc1ccc2c3c1O[C@H]1C[C@@H](O)C=C[C@@]31CCN(C)C2 [GALANTAMINE],Compound metabolized
2,COCCc1ccc(OCC(O)CNC(C)C)cc1.COCCc1ccc(OCC(O)CNC(C)C)cc1.O=C(O)C(O)C(O)C(=O)O (configuration not stated) [METOPROLOL TARTRATE],Compound NOT metabolized
3,Cc1ccccc1N1C(=O)c2cc(S(N)(=O)=O)c(Cl)cc2NC1C (configuration not stated) [METOLAZONE],Compound NOT metabolized

# Test: The drug is tested on Edwardsiella tarda strain: ATCC23685 for biotransformation. The drug concentrations were measured before and after a 12-h incubation by liquid-chromatography-coupled mass spectrometry (LC–MS)
# Settings: 2 µM
row,Structure (SMILES),Bacterial Biotransformation
1,COc1ccc2c3c1O[C@H]1C[C@@H](O)C=C[C@@]31CCN(C)C2 [GALANTAMINE],Compound NOT metabolized
2,COCCc1ccc(OCC(O)CNC(C)C)cc1.COCCc1ccc(OCC(O)CNC(C)C)cc1.O=C(O)C(O)C(O)C(=O)O (configuration not stated) [METOPROLOL TARTRATE],Compound NOT metabolized
3,Cc1ccccc1N1C(=O)c2cc(S(N)(=O)=O)c(Cl)cc2NC1C (configuration not stated) [METOLAZONE],Compound NOT metabolized

# Settings: bacteroides stercoris, 12 h, 2 µM
# Description: The drug is tested on Bacteroides stercoris strain: ATCC43183 for biotransformation. The drug concentrations were measured before and after a 12-h incubation by liquid-chromatography-coupled mass spectrometry (LC–MS)
row,Structure (SMILES),Bacterial Biotransformation
1,COc1ccc2c3c1O[C@H]1C[C@@H](O)C=C[C@@]31CCN(C)C2 [GALANTAMINE],Compound NOT metabolized
2,Cc1ccccc1N1C(=O)c2cc(S(N)(=O)=O)c(Cl)cc2NC1C (configuration not stated) [METOLAZONE],Compound NOT metabolized

# Test: The drug is tested on Clostridium symbiosum strain: ATCC14940 for biotransformation. The drug concentrations were measured before and after a 12-h incubation by liquid-chromatography-coupled mass spectrometry (LC–MS)
# Settings: 2 µM
row,Structure (SMILES),Bacterial Biotransformation
1,COc1ccc2c3c1O[C@H]1C[C@@H](O)C=C[C@@]31CCN(C)C2 [GALANTAMINE],Compound NOT metabolized
2,COCCc1ccc(OCC(O)CNC(C)C)cc1.COCCc1ccc(OCC(O)CNC(C)C)cc1.O=C(O)C(O)C(O)C(=O)O (configuration not stated) [METOPROLOL TARTRATE],Compound NOT metabolized
3,Cc1ccccc1N1C(=O)c2cc(S(N)(=O)=O)c(Cl)cc2NC1C (configuration not stated) [METOLAZONE],Compound NOT metabolized

# Test: The drug is tested on Dorea formicigenerans strain: ATCC27755 for biotransformation. The drug concentrations were measured before and after a 12-h incubation by liquid-chromatography-coupled mass spectrometry (LC–MS)
# Settings: 2 µM
row,Structure (SMILES),Bacterial Biotransformation
1,COc1ccc2c3c1O[C@H]1C[C@@H](O)C=C[C@@]31CCN(C)C2 [GALANTAMINE],Compound NOT metabolized
2,COCCc1ccc(OCC(O)CNC(C)C)cc1.COCCc1ccc(OCC(O)CNC(C)C)cc1.O=C(O)C(O)C(O)C(=O)O (configuration not stated) [METOPROLOL TARTRATE],Compound NOT metabolized

# Test: The drug is tested on Bacteroides pectinophilus strain: ATCC43243 for biotransformation. The drug concentrations were measured before and after a 12-h incubation by liquid-chromatography-coupled mass spectrometry (LC–MS)
# Settings: 2 µM
row,Structure (SMILES),Bacterial Biotransformation
1,COc1ccc2c3c1O[C@H]1C[C@@H](O)C=C[C@@]31CCN(C)C2 [GALANTAMINE],Compound NOT metabolized
2,COCCc1ccc(OCC(O)CNC(C)C)cc1.COCCc1ccc(OCC(O)CNC(C)C)cc1.O=C(O)C(O)C(O)C(=O)O (configuration not stated) [METOPROLOL TARTRATE],Compound NOT metabolized
3,Cc1ccccc1N1C(=O)c2cc(S(N)(=O)=O)c(Cl)cc2NC1C (configuration not stated) [METOLAZONE],Compound NOT metabolized

# Test: The drug is tested on Parabacteroides merdae strain: ATCC43184 for biotransformation. The drug concentrations were measured before and after a 12-h incubation by liquid-chromatography-coupled mass spectrometry (LC–MS)
# Settings: 2 µM
row,Structure (SMILES),Bacterial Biotransformation
1,COc1ccc2c3c1O[C@H]1C[C@@H](O)C=C[C@@]31CCN(C)C2 [GALANTAMINE],Compound NOT metabolized
2,COCCc1ccc(OCC(O)CNC(C)C)cc1.COCCc1ccc(OCC(O)CNC(C)C)cc1.O=C(O)C(O)C(O)C(=O)O (configuration not stated) [METOPROLOL TARTRATE],Compound NOT metabolized

# Test: The drug is tested on Bacteroides ovatus strain: ATCC8483 for biotransformation. The drug concentrations were measured before and after a 12-h incubation by liquid-chromatography-coupled mass spectrometry (LC–MS)
# Settings: 2 µM
row,Structure (SMILES),Bacterial Biotransformation
1,COc1ccc2c3c1O[C@H]1C[C@@H](O)C=C[C@@]31CCN(C)C2 [GALANTAMINE],Compound metabolized
2,COCCc1ccc(OCC(O)CNC(C)C)cc1.COCCc1ccc(OCC(O)CNC(C)C)cc1.O=C(O)C(O)C(O)C(=O)O (configuration not stated) [METOPROLOL TARTRATE],Compound NOT metabolized

# Test: The drug is tested on Clostridium asparagiforme strain: DSM15981 for biotransformation. The drug concentrations were measured before and after a 12-h incubation by liquid-chromatography-coupled mass spectrometry (LC–MS)
# Format: ADME
# Parameters: dose 2 uM, timepoint 0 vs 12 hours
# Settings: enterocloster asparagiformis, 2 µM
row,Structure (SMILES),Bacterial Biotransformation
1,COc1ccc2c3c1O[C@H]1C[C@@H](O)C=C[C@@]31CCN(C)C2 [GALANTAMINE],Compound NOT metabolized
2,COCCc1ccc(OCC(O)CNC(C)C)cc1.COCCc1ccc(OCC(O)CNC(C)C)cc1.O=C(O)C(O)C(O)C(=O)O (configuration not stated) [METOPROLOL TARTRATE],Compound NOT metabolized
3,Cc1ccccc1N1C(=O)c2cc(S(N)(=O)=O)c(Cl)cc2NC1C (configuration not stated) [METOLAZONE],Compound NOT metabolized

# Test: The drug is tested on Ruminococcus torques strain: ATCC27756 for biotransformation. The drug concentrations were measured before and after a 12-h incubation by liquid-chromatography-coupled mass spectrometry (LC–MS)
# Format: ADME
# Parameters: dose 2 uM, timepoint 0 vs 12 hours
# Settings: 2 µM
row,Structure (SMILES),Bacterial Biotransformation
1,COc1ccc2c3c1O[C@H]1C[C@@H](O)C=C[C@@]31CCN(C)C2 [GALANTAMINE],Compound NOT metabolized
2,COCCc1ccc(OCC(O)CNC(C)C)cc1.COCCc1ccc(OCC(O)CNC(C)C)cc1.O=C(O)C(O)C(O)C(=O)O (configuration not stated) [METOPROLOL TARTRATE],Compound NOT metabolized
3,Cc1ccccc1N1C(=O)c2cc(S(N)(=O)=O)c(Cl)cc2NC1C (configuration not stated) [METOLAZONE],Compound NOT metabolized

# Settings: enterocloster bolteae, 12 h, 2 µM
# Description: The drug is tested on Clostridium bolteae strain: ATCCBAA-613 for biotransformation. The drug concentrations were measured before and after a 12-h incubation by liquid-chromatography-coupled mass spectrometry (LC–MS)
row,Structure (SMILES),Bacterial Biotransformation
1,COc1ccc2c3c1O[C@H]1C[C@@H](O)C=C[C@@]31CCN(C)C2 [GALANTAMINE],Compound NOT metabolized
2,COCCc1ccc(OCC(O)CNC(C)C)cc1.COCCc1ccc(OCC(O)CNC(C)C)cc1.O=C(O)C(O)C(O)C(=O)O (configuration not stated) [METOPROLOL TARTRATE],Compound NOT metabolized

# Test: The drug is tested on Alistipes indistinctus strain: DSM22520 for biotransformation. The drug concentrations were measured before and after a 12-h incubation by liquid-chromatography-coupled mass spectrometry (LC–MS)
# Settings: 2 µM
row,Structure (SMILES),Bacterial Biotransformation
1,COc1ccc2c3c1O[C@H]1C[C@@H](O)C=C[C@@]31CCN(C)C2 [GALANTAMINE],Compound metabolized
